For 24 compounds, IC50 results are on record in patent US10568876B2, “Tetrahydroisoquinoline derivatives useful as inhibitors of diacylglyceride O-acyltransferase 2” (Merck Sharp & Dohme Corp., priority 2014, dated 2020).

Chain of hDGAT2 (Q96PD7 whole entry): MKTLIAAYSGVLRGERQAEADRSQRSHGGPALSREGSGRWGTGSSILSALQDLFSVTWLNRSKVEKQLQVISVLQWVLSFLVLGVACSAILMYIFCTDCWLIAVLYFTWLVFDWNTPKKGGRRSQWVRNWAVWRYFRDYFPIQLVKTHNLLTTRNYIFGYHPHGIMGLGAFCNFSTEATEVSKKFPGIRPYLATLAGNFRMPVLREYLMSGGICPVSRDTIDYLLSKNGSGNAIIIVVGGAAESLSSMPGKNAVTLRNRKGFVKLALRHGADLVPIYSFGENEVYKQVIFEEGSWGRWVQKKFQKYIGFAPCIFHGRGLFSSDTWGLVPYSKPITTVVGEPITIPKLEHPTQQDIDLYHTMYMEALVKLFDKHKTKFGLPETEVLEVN

This test deals with hDGAT2 (Homo sapiens (Human), UniProt Q96PD7). Put plainly: DGAT2 Enzymatic Activity Assay. In kind it is biochemical. The note with it: hDGAT2 Sf-9 membrane prep; 25 μM diolein, 10 μM oleoyl-CoA; triolein product by LC/MS/MS; read-out: IC50 values for inhibition of DGAT2. In outline:
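Membranes from Sf-9 cells expressing untagged hDGAT2 (10 ng/μL) incubated at room temperature with 25 μM diolein and 10 μM oleoyl-CoA in 100 mM Tris pH 7.0, 20 mM MgCl2, 5% ethanol. Triolein product quantified by LC/MS/MS against spiked internal standard; IC50 from 4-parameter sigmoidal fit.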
As to `COC(=O)c1cccc(-c2ccc(CNC(=O)C3CC3c3ccccc3)c3c2CCN(C(=O)CC(F)(F)F)C3)c1` (stereo not drawn) [Example 129, methyl 3-(8-((2-phenylcyclopropanecarboxamido)methyl)-2-(3,3,3-trifluoropropanoyl)-1,2,3,4-tetrahydroisoquinolin-5-yl)benzoate], the IC50 worked out at 1820 nM.

Consider `COC(=O)c1cccc(-c2ccc(CNC(=O)C3CC3c3ccccc3)c3c2CCN(C(=O)c2cnoc2C(C)C)C3)c1` (stereo not drawn) [Example 122, methyl 3-(2-(5-isopropylisoxazole-4-carbonyl)-8-((2-phenylcyclopropanecarboxamido)methyl)-1,2,3,4-tetrahydroisoquinolin-5-yl)benzoate], for which the concentration for half-maximal inhibition (IC50) was 5500 nM.

As to `COC(=O)c1cccc(-c2ccc(CNC(=O)C3CC3c3ccccc3)c3c2CCN(Cc2ccccn2)C3)c1` (stereo not drawn) [Example 94, methyl 3-(8-((2-phenylcyclopropanecarboxamido)methyl)-2-(pyridin-2-ylmethyl)-1,2,3,4-tetrahydroisoquinolin-5-yl)benzoate], the half-inhibitory concentration (IC50) is 247 nM.

With `CCOCC(=O)N1CCc2c(-c3cccc(C(=O)OC)c3)ccc(CNC(=O)C3CC3c3ccccc3)c2C1` (stereo not drawn) [Example 136, methyl 3-(2-(2-ethoxyacetyl)-8-((2-phenylcyclopropanecarboxamido)methyl)-1,2,3,4-tetrahydroisoquinolin-5-yl)benzoate], the 50% inhibitory concentration (IC50) was determined as 2170 nM.

Consider `COC[C@H]1CCC[C@H]1NC(=O)CN1CCc2c(-c3cccc(OC(F)(F)F)c3)ccc(CNC(=O)C3CC3c3nc(C)no3)c2C1` (stereo in doubt) [Example 86, N-((2-(2-(((trans)-2-(methoxymethyl)cyclopentyl)amino)-2-oxoethyl)-5-(3-(trifluoromethoxy)phenyl)-1,2,3,4-tetrahydroisoquinolin-8-yl)methyl)-2-(3-methyl-1,2,4-oxadiazol-5-yl)cyclopropanecarboxamide], for which the IC50 was determined as 2290 nM.

Take `COc1cccc(-c2ccc(CNC(=O)[C@@H]3C[C@H]3c3nc(C)no3)c3c2CCN(C(=O)Nc2ccon2)C3)c1` (relative stereo) [Example 25, N-(isoxazol-3-yl)-5-(3-methoxyphenyl)-8-(((trans)-2-(3-methyl-1,2,4-oxadiazol-5-yl)cyclopropanecarboxamido)methyl)-3,4-dihydroisoquinoline-2(1H)-carboxamide]: the half-maximal inhibitory concentration (IC50) was 144 nM.

`CC(C)(C)NC(=O)N1CCc2c(-c3cncc(C(C)(C)O)c3)ccc(CNC(=O)[C@@H]3C[C@H]3c3ccccc3)c2C1` (relative stereo) [Example 10, N-(tert-butyl)-5-(5-(2-hydroxypropan-2-yl)pyridin-3-yl)-8-(((trans)-2-phenylcyclopropanecarboxamido)methyl)-3,4-dihydroisoquinoline-2(1H)-carboxamide]: the concentration for half-maximal inhibition (IC50) came out at 166 nM.

Take `COc1cccc(-c2ccc(CNC(=O)[C@@H]3C[C@H]3c3ccccc3)c3c2CCN(C(=O)N2CCOCC2)C3)c1` (relative stereo) [Example 62, (trans)-N-((5-(3-methoxyphenyl)-2-(morpholine-4-carbonyl)-1,2,3,4-tetrahydroisoquinolin-8-yl)methyl)-2-phenylcyclopropanecarboxamide]: the IC50 came to 818 nM.

In the case of `Cc1noc(C2CC2C(=O)NCc2ccc(-c3cccc(-n4cccn4)c3)c3c2CN(C(=O)N[C@@]2(C)CCS(=O)(=O)C2)CC3)n1` (stereo partly drawn) [Example 79, 5-(3-(1H-pyrazol-1-yl)phenyl)-N-((S)-3-methyl-1,1-dioxidotetrahydrothiophen-3-yl)-8-((2-(3-methyl-1,2,4-oxadiazol-5-yl)cyclopropanecarboxamido)methyl)-3,4-dihydroisoquinoline-2(1H)-carboxamide], the 50% inhibitory concentration (IC50) is 98 nM.

Take `Cc1noc([C@@H]2C[C@H]2C(=O)NCc2ccc(-c3cccc(OC(F)(F)F)c3)c3c2CN(Cc2noc(C(C)C)n2)CC3)n1` (relative stereo) [Example 104, (trans)-N-((2-((5-isopropyl-1,2,4-oxadiazol-3-yl)methyl)-5-(3-(trifluoromethoxy)phenyl)-1,2,3,4-tetrahydroisoquinolin-8-yl)methyl)-2-(3-methyl-1,2,4-oxadiazol-5-yl)cyclopropanecarboxamide]: the IC50 was found to be 5090 nM.

With `COC(=O)c1cccc(-c2ccc(CNC(=O)C3CC3c3ccccc3)c3c2CCN(C(=O)CC2CC2)C3)c1` (stereo not drawn) [Example 125, methyl 3-(2-(2-cyclopropylacetyl)-8-((2-phenylcyclopropanecarboxamido)methyl)-1,2,3,4-tetrahydroisoquinolin-5-yl)benzoate], the 50% inhibitory concentration (IC50) was 209 nM.

Turning to `COC(=O)c1cccc(-c2ccc(CNC(=O)C3CC3c3ccccc3)c3c2CCN(C(=O)C2(C(F)(F)F)CC2)C3)c1` (stereo not drawn) [Example 123, methyl 3-(8-((2-phenylcyclopropanecarboxamido)methyl)-2-(1-(trifluoromethyl)cyclopropanecarbonyl)-1,2,3,4-tetrahydroisoquinolin-5-yl)benzoate], the half-maximal inhibitory concentration (IC50) is 1320 nM.

Turning to `Cc1noc(C2CC2C(=O)NCc2ccc(-c3cccc(OC(F)(F)F)c3)c3c2CN(C(=O)NC2(C)CCS(=O)(=O)C2)CC3)n1` (stereo not drawn) [Example 58, N-(3-methyl-1,1-dioxidotetrahydrothiophen-3-yl)-8-((2-(3-methyl-1,2,4-oxadiazol-5-yl)cyclopropanecarboxamido)methyl)-5-(3-(trifluoromethoxy)phenyl)-3,4-dihydroisoquinoline-2(1H)-carboxamide], the half-maximal inhibitory concentration (IC50) came out at 24 nM.

For `Cc1cc(C)n(-c2cccc(-c3ccc(CNC(=O)[C@@H]4C[C@H]4c4ccccc4)c4c3CCN(C(=O)NC(C)(C)C)C4)c2)n1` (relative stereo) [Example 31, N-(tert-butyl)-5-(3-(3,5-dimethyl-1H-pyrazol-1-yl)phenyl)-8-(((trans)-2-phenylcyclopropanecarboxamido)methyl)-3,4-dihydroisoquinoline-2(1H)-carboxamide], the IC50 was 6090 nM.

Take `CC(C)(C)NC(=O)N1CCc2c(-c3cccc(-n4nccn4)c3)ccc(CNC(=O)[C@@H]3C[C@H]3c3ccccc3)c2C1` (relative stereo) [Example 48, 5-(3-(2H-1,2,3-triazol-2-yl)phenyl)-N-(tert-butyl)-8-(((trans)-2-phenylcyclopropanecarboxamido)methyl)-3,4-dihydroisoquinoline-2(1H)-carboxamide]: the half-inhibitory concentration (IC50) is 97.6 nM.

Turning to `CC(C)(C)NC(=O)N1CCc2c(-c3cccc(-c4ncon4)c3)ccc(CNC(=O)C3C[C@H]3c3ccccc3)c2C1` (stereo partly drawn) [Example 51, 5-(3-(1,2,4-oxadiazol-3-yl)phenyl)-N-(tert-butyI)-8-(((trans)-2-phenylcyclopropanecarboxamido)methyl)-3,4-dihydroisoquinoline-2(1H)-carboxamide], the IC50 turned out to be 5.78 nM.

Consider `CC(C)(C)NC(=O)N1CCc2c(-c3ccnc4[nH]ccc34)ccc(CNC(=O)[C@@H]3C[C@H]3c3ccccc3)c2C1` (relative stereo) [Example 32, N-(tert-butyl)-8-(((trans)-2-phenylcyclopropanecarboxamido)methyl)-5-(1H-pyrrolo[2,3-b]pyridin-4-yl)-3,4-dihydroisoquinoline-2(1H)-carboxamide], for which the 50% inhibitory concentration (IC50) turned out to be 1460 nM.

With `COC(=O)c1cccc(-c2ccc(CNC(=O)C3CC3c3ccccc3)c3c2CCN(C(=O)c2cccc(-n4cccc4)c2)C3)c1` (stereo not drawn) [Example 124, methyl 3-(2-(3-(1H-pyrrol-1-yl)benzoyl)-8-((2-phenylcyclopropanecarboxamido)methyl)-1,2,3,4-tetrahydroisoquinolin-5-yl)benzoate], the IC50 came out at 5490 nM.

With `COc1cccc(-c2ccc(CNC(=O)[C@@H]3C[C@H]3c3ccccc3)c3c2CCN(C(=O)Nc2ccon2)C3)c1` (relative stereo) [Example 23, N-(isoxazol-3-yl)-5-(3-methoxyphenyl)-8-(((trans)-2-phenylcyclopropanecarboxamido)methyl)-3,4-dihydroisoquinoline-2(1H)-carboxamide], the IC50 was determined as 302 nM.

Consider `COc1cccc(-c2ccc(CNC(=O)[C@H]3C[C@@H]3c3ccccc3)c3c2CCN(c2nccc(C(F)(F)F)n2)C3)c1` (relative stereo) [Example 109, (trans)-N-((5-(3-methoxyphenyl)-2-(4-(trifluoromethyl)pyrimidin-2-yl)-1,2,3,4-tetrahydroisoquinolin-8-yl)methyl)-2-phenylcyclopropanecarboxamide], for which the 50% inhibitory concentration (IC50) came to 4040 nM.

Regarding `Cc1noc(C2CC2C(=O)NCc2ccc(-c3cccc(OC(F)(F)F)c3)c3c2CN(CC(=O)NC2CCC2)CC3)n1` (stereo not drawn) [Example 87, N-((2-(2-(cyclobutylamino)-2-oxoethyl)-5-(3-(trifluoromethoxy)phenyl)-1,2,3,4-tetrahydroisoquinolin-8-yl)methyl)-2-(3-methyl-1,2,4-oxadiazol-5-yl)cyclopropanecarboxamide], the IC50 worked out at 4220 nM.

On to `CC(C)(C)NC(=O)N1CCc2c(-c3cccc(OC(F)(F)F)c3)ccc(CNC(=O)C3CC3c3cccnc3)c2C1` (stereo not drawn) [Example 4, N-(tert-butyl)-8-((2-(pyridin-3-yl)cyclopropanecarboxamido)methyl)-5-(3-(trifluoromethoxy)phenyl)-3,4-dihydroisoquinoline-2(1H)-carboxamide], for which the IC50 turned out to be 11.7 nM.

Regarding `CC(C)(C)NC(=O)N1CCc2c(-c3cccc(C(N)=O)c3)ccc(CNC(=O)[C@@H]3C[C@H]3c3ccccc3)c2C1` (relative stereo) [Example 42, N-(tert-butyl)-5-(3-carbamoylphenyl)-8-(((trans)-2-phenylcyclopropanecarboxamido)methyl)-3,4-dihydroisoquinoline-2(1H)-carboxamide], the half-inhibitory concentration (IC50) worked out at 155 nM.

As to `CC(C)(C)NC(=O)N1CCc2c(-c3cccc(-n4cccn4)c3)ccc(CNC(=O)[C@@H]3C[C@H]3c3ccccc3)c2C1` (relative stereo) [Example 34, 5-(3-(1H-pyrazol-1-yl)phenyl)-N-(tert-butyl)-8-(((trans)-2-phenylcyclopropanecarboxamido)methyl)-3,4-dihydroisoquinoline-2(1H)-carboxamide], the IC50 came out at 11.6 nM.
